Test results published in the kinase profiling compilation of Christmann-Franck et al. (2016).

Legend:
Experiment in all cases: KINOMEscan competition binding
Conditions in all cases: compound 10.0 µM
[1] = system: ABL1 (human), P00519 [M351T]
ACVR1B (human) = ACVR1B (human) (UniProt P36896)
BLK (human) = BLK (human) (UniProt P51451)
BRSK2 (human) = BRSK2 (human) (UniProt Q8IWQ3)
CAMK2B (human) = CAMK2B (human) (UniProt Q13554)
CAMK2G (human) = CAMK2G (human) (UniProt Q13555)
CDK19 (human) = CDK19 (human) (UniProt Q9BWU1)
CDK5 (human) = CDK5 (human) (UniProt Q00535)
CLK1 (human) = CLK1 (human) (UniProt P49759)
CPK1 (P.falciparum) = system: CPK1 (P.falciparum)
CSNK2A2 (human) = CSNK2A2 (human) (UniProt P19784)
DAPK1 (human) = DAPK1 (human) (UniProt P53355)
DDR1 (human) = DDR1 (human) (UniProt Q08345)
ERBB3 (human) = ERBB3 (human) (UniProt P21860)
FLT4 (human) = FLT4 (human) (UniProt P35916)
HIPK1 (human) = HIPK1 (human) (UniProt Q86Z02)
HIPK2 (human) = HIPK2 (human) (UniProt Q9H2X6)
HIPK3 (human) = HIPK3 (human) (UniProt Q9H422)
IKBKB (human) = IKBKB (human) (UniProt O14920)
KDR (human) = KDR (human) (UniProt P35968)
[2] = system: KIT (human), P10721 [V559D/T670I]
LCK (human) = LCK (human) (UniProt P06239)
MAP2K7 (human) = MAP2K7 (human) (UniProt O14733)
MAP3K2 (human) = MAP3K2 (human) (UniProt Q9Y2U5)
MAST1 (human) = MAST1 (human) (UniProt Q9Y2H9)
MYO3A (human) = MYO3A (human) (UniProt Q8NEV4)
NEK11 (human) = NEK11 (human) (UniProt Q8NG66)
NTRK2 (human) = NTRK2 (human) (UniProt Q16620)
PIK3C2B (human) = PIK3C2B (human) (UniProt O00750)
PRKACA (human) = PRKACA (human) (UniProt P17612)
PRKCQ (human) = PRKCQ (human) (UniProt Q04759)
PRPF4B (human) = PRPF4B (human) (UniProt Q13523)
[3] = system: RET (human), P07949 [V804L]
[4] = system: RET (human), P07949 [V804M]
ROCK2 (human) = ROCK2 (human) (UniProt O75116)
SIK2 (human) = SIK2 (human) (UniProt Q9H0K1)
SNRK (human) = SNRK (human) (UniProt Q9NRH2)
SRPK1 (human) = SRPK1 (human) (UniProt Q96SB4)
STK25 (human) = STK25 (human) (UniProt O00506)
STK3 (human) = STK3 (human) (UniProt Q13188)
SYK (human) = SYK (human) (UniProt P43405)
[5] = target: TYK2 JH2 pseudokinase (human) (UniProt P29597)
TYK2 JH2 pseudokinase (human), sequence (P29597 whole entry, looked up): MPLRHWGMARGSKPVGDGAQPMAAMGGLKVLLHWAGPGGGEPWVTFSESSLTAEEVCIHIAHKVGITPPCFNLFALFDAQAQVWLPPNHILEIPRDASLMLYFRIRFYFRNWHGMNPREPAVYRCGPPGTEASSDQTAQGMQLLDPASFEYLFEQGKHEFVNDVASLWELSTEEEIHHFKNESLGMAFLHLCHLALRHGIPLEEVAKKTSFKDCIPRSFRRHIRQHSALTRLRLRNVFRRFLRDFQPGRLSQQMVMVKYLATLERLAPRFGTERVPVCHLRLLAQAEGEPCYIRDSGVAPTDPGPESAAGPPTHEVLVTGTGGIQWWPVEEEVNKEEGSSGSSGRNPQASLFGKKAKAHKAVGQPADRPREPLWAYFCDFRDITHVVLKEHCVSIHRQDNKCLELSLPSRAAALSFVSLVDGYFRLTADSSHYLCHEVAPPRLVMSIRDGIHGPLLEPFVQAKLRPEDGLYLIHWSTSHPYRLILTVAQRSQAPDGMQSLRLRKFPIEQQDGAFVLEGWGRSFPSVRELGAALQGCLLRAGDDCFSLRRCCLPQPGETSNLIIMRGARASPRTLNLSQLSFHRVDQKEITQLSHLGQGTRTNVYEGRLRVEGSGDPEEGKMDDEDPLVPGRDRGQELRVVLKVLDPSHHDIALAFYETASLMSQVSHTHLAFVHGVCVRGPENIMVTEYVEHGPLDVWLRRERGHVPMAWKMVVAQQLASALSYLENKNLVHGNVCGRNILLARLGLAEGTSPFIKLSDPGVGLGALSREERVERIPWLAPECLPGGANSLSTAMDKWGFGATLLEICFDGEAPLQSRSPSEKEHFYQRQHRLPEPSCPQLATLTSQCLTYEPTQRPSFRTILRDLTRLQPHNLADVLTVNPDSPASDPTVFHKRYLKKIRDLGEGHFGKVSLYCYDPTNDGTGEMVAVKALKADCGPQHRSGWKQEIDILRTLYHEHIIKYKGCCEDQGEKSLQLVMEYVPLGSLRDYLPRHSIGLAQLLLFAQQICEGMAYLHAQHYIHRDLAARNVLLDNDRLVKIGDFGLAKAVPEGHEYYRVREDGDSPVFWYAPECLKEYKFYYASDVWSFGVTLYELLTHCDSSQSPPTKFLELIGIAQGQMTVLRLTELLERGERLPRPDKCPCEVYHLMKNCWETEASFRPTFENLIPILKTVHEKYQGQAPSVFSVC

NEK11 (human), sequence (Q8NG66 whole entry, looked up): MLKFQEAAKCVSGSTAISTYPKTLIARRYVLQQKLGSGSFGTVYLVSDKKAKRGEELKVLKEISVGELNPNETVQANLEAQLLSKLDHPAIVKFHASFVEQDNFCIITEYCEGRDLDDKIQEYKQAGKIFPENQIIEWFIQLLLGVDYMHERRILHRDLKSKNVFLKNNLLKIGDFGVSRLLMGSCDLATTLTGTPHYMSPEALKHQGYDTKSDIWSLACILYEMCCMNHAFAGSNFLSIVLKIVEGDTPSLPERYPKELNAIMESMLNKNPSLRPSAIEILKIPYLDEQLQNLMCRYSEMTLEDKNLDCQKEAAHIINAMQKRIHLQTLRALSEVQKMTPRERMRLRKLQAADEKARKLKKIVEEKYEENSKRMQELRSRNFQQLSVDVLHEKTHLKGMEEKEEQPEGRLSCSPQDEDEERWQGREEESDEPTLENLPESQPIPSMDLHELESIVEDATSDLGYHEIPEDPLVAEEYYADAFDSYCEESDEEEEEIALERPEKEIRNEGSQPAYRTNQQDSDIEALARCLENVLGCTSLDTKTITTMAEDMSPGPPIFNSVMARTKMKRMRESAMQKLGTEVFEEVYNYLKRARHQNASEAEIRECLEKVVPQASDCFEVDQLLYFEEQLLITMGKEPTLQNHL
IKBKB (human), sequence (O14920 whole entry, looked up): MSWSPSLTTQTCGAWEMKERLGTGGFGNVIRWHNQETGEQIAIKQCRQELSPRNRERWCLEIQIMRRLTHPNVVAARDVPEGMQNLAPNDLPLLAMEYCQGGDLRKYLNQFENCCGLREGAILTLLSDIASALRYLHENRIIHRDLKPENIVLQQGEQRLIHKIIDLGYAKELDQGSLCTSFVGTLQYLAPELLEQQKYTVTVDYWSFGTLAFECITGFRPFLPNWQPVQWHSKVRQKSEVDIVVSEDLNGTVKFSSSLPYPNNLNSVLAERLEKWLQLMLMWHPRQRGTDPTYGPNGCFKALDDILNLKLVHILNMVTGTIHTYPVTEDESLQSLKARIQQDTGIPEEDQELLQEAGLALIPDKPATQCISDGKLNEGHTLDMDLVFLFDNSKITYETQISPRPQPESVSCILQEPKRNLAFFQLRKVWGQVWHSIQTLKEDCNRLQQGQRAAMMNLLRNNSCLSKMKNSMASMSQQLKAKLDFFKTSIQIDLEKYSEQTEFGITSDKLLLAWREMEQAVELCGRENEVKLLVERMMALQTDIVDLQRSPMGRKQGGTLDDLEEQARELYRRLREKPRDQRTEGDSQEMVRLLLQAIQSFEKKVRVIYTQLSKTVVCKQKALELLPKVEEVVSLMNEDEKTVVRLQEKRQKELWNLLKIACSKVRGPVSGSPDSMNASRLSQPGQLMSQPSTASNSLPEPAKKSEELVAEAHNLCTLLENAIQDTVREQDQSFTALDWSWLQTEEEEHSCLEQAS
SRPK1 (human), sequence (Q96SB4 whole entry, looked up): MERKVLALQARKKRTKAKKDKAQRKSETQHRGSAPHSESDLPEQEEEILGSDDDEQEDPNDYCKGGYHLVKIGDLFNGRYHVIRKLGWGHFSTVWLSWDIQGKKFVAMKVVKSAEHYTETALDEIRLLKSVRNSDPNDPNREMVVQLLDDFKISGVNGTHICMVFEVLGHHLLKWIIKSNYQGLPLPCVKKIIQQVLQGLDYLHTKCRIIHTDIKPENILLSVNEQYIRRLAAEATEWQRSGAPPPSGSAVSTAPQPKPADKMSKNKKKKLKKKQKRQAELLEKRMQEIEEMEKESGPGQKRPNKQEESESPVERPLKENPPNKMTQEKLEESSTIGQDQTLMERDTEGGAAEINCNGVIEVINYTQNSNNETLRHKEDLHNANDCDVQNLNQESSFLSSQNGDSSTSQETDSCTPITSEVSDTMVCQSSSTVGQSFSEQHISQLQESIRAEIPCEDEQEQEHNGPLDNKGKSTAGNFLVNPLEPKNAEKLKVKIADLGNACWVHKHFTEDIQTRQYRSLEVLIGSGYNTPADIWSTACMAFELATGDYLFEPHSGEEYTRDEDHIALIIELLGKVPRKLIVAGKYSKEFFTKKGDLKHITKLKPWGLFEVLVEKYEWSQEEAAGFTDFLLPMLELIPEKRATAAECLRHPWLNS
NTRK2 (human), sequence (Q16620 whole entry, looked up): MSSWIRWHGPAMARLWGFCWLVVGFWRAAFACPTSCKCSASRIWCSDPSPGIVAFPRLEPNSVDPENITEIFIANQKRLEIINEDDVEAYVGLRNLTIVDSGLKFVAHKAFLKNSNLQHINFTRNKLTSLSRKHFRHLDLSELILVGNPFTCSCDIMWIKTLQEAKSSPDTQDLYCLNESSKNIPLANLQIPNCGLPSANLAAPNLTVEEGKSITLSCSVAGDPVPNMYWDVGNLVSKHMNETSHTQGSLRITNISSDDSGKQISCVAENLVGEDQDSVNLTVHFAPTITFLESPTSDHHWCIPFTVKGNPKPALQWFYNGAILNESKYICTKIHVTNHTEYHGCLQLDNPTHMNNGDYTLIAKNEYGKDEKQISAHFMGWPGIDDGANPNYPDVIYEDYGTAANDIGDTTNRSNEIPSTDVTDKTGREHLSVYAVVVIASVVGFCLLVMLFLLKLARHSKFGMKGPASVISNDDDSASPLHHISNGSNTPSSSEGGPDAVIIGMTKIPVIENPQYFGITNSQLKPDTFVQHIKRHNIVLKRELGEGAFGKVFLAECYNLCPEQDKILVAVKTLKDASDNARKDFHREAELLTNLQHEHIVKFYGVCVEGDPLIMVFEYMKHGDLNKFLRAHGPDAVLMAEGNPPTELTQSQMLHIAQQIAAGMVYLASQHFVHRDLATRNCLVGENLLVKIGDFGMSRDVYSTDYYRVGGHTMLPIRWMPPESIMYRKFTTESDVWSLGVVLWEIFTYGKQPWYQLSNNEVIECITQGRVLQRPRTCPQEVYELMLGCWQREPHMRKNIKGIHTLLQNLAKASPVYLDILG
LCK (human), sequence (P06239 whole entry, looked up): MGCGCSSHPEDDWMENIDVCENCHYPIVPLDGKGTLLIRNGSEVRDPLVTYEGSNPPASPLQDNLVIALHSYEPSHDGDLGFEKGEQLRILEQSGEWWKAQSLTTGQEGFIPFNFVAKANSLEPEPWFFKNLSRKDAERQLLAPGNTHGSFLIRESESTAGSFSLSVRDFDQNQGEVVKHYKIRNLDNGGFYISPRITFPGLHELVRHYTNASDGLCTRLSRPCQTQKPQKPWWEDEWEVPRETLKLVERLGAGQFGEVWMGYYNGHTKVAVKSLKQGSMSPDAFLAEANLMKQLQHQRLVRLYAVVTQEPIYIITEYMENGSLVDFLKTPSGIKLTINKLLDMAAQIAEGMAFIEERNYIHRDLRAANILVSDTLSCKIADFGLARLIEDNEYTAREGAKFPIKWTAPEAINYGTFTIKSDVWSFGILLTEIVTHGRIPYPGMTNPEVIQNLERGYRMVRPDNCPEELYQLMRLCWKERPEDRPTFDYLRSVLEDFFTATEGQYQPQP
CLK1 (human), sequence (P49759 whole entry, looked up): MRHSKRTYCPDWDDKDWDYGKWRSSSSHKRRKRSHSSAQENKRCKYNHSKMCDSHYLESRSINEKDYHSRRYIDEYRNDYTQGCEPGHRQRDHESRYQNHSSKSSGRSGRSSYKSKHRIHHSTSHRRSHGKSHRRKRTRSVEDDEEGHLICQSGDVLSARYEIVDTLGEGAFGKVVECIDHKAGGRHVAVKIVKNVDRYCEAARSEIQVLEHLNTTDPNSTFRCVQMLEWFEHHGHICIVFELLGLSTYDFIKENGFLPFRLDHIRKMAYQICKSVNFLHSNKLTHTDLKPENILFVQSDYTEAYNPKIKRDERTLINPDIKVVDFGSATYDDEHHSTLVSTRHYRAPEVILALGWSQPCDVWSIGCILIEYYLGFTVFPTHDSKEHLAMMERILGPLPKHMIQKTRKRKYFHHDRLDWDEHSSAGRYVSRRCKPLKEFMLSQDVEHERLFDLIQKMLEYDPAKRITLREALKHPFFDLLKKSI

SMILES: Cc1cc([C@@H](C)Nc2ccccc2C(=O)O)c2nc(N3CCOCC3)cc(=O)n2c1
- kinase still bound, per cent of control [1]: 100%
- kinase still bound, per cent of control (ACVR1B (human)): 100%
- kinase still bound, per cent of control (BLK (human)): 100%
- kinase still bound, per cent of control (BRSK2 (human)): 94%
- kinase still bound, per cent of control (CAMK2B (human)): 89%
- kinase still bound, per cent of control (CAMK2G (human)): 87%
- kinase still bound, per cent of control (CDK19 (human)): 100%
- kinase still bound, per cent of control (CDK5 (human)): 100%
- kinase still bound, per cent of control (CLK1 (human)): 56%
- kinase still bound, per cent of control (CPK1 (P.falciparum)): 75%
- kinase still bound, per cent of control (CSNK2A2 (human)): 64%
- kinase still bound, per cent of control (DAPK1 (human)): 100%
- kinase still bound, per cent of control (DDR1 (human)): 81%
- kinase still bound, per cent of control (ERBB3 (human)): 100%
- kinase still bound, per cent of control (FLT4 (human)): 100%
- kinase still bound, per cent of control (HIPK1 (human)): 87%
- kinase still bound, per cent of control (HIPK2 (human)): 77%
- kinase still bound, per cent of control (HIPK3 (human)): 68%
- kinase still bound, per cent of control (IKBKB (human)): 95%
- kinase still bound, per cent of control (KDR (human)): 100%
- kinase still bound, per cent of control [2]: 64%
- kinase still bound, per cent of control (LCK (human)): 81%
- kinase still bound, per cent of control (MAP2K7 (human)): 100%
- kinase still bound, per cent of control (MAP3K2 (human)): 88%
- kinase still bound, per cent of control (MAST1 (human)): 54%
- kinase still bound, per cent of control (MYO3A (human)): 100%
- kinase still bound, per cent of control (NEK11 (human)): 68%
- kinase still bound, per cent of control (NTRK2 (human)): 81%
- kinase still bound, per cent of control (PIK3C2B (human)): 1%
- kinase still bound, per cent of control (PRKACA (human)): 100%
- kinase still bound, per cent of control (PRKCQ (human)): 100%
- kinase still bound, per cent of control (PRPF4B (human)): 100%
- kinase still bound, per cent of control [3]: 100%
- kinase still bound, per cent of control [4]: 99%
- kinase still bound, per cent of control (ROCK2 (human)): 89%
- kinase still bound, per cent of control (SIK2 (human)): 90%
- kinase still bound, per cent of control (SNRK (human)): 54%
- kinase still bound, per cent of control (SRPK1 (human)): 100%
- kinase still bound, per cent of control (STK25 (human)): 100%
- kinase still bound, per cent of control (STK3 (human)): 97%
- kinase still bound, per cent of control (SYK (human)): 90%
- kinase still bound, per cent of control [5]: 95%
